# Data taken from patent US11427553B2, “Dihydrooxadiazinones” (Bayer Aktiengesellschaft, priority 2017, dated 2022).
# Key:
# [1] = Assay 6 in vitro metabolic stability in cryopreserved human hepatocytes (CL, Fmax); assay type: in vitro ADME; settings: 1 μM test compound; for Clblood: hepatic in vivo blood clearance calculated (well-stirred) from half-life in cryopreserved human hepatocytes; for Fmax: maximal oral bioavailability calculated from half-life in cryopreserved human hepatocytes
# Procedure, shortened: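 Test compound at 1 μM incubated with cryopreserved human hepatocytes (1.0×10^6 viable cells/ml, WME with 5% FCS) under shaking, with samples taken from 2 to 90 min, methanol-quenched and analysed by LC-MS/MS. Half-life gave intrinsic clearance, scaled with liver blood flow and hepatocellularity to CL and Fmax.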
# [2] = test system: DK-MG cells; experiment: Assay 1 cell proliferation measurement, DK-MG; assay type: cell-based; settings: Homo sapiens; Glioblastoma; read-out: Anti-proliferation IC50 [nM] DK-MG
# [3] = test system: HEL 92.1.7 cells; experiment: Assay 1 cell proliferation measurement, HEL 92.1.7; assay type: cell-based; settings: Homo sapiens, Erythroleukemia, read-out: Anti-proliferation IC50 [nM] HEL 92.1.7
# [4] = test system: CHL-1 cells; experiment: Assay 1 cell proliferation measurement, CHL-1; assay type: cell-based; settings: Homo sapiens, Melanoma, read-out: Anti-proliferation IC50 [nM] CHL-1
# [5] = test system: A-2058 cells; experiment: Assay 1 cell proliferation measurement, A-2058; assay type: cell-based; settings: Homo sapiens, A2058; Melanoma; read-out: Anti-proliferation IC50 [nM] A-2058
# [6] = test system: SKMEL3 cells; experiment: Assay 2 cell proliferation measurement, SKMEL3; assay type: cell-based; settings: Homo sapiens, SK-MEL3, Melanoma, read-out: Anti-proliferation IC50 [nM] SKMEL3
# Experimental: (§1) Cell Proliferation Measurement
# (§2) The antiproliferative activity of the compounds of the general formula (I) was examined in vitro in human cancer cells. For this purpose, 500 cells, including HeLa cells, A2058 cells, DU145 cells, HMCB cells, IGR37 cells, NCIH1734 cells, OSRC2 cells, or 750 cells, including CAL51 cells, COL0741 cells, DBTRG05MG cells, DKMG cells, G292CLONEA141B1 cells, GB1 cells, HEL cells, HEL9217 cells, JHUEM1 cells, L3.3 cells, LI7 cells, TE4 cells, or 1000 cells, including 8505C cells, HUT78 cells, NCIH1563 cells, NCIH2122 cells, NCIH2172 cells, RVH421 cells, SKMEL3 cells, or 1500 cells, including C32 cells, HS578T cells, JHOM1 cells, NCIH196 cells, OVKATE cells, were plated in 384-well plates with appropriate growth medium and incubated at 37° C. overnight. After 24 h, the cells on the test plate were treated with the compounds of the general formula (I) as and incubated at 37° C. for 72 h. The compounds were added to the cells by means of an HP D300 digital dispenser in a 10 (or more)-step dilution series. As control, the cells were treated with vehicle (DMSO at 0.3% final concentration). After 72 h, the cells were treated with 20 μl/well of 50% CTG solution in PBS (Promega Cell Titer Glo (catalogue #G755B and G756B)) and incubated at room temperature for 10 min, and luminescence was measured by means of a VICTOR V (Perkin Elmer), in order to determine cell viability at the end of treatment. The percentage effect on cell growth and the IC50 derived therefrom were determined for each test substance using the values from untreated wells (=percent viability). The IC50 values were calculated using a 4-parameter fit.
# [7] = test system: C32 cells; experiment: Assay 2 cell proliferation measurement, C32; assay type: cell-based; settings: Homo sapiens, Melanoma, read-out: Anti-proliferation IC50 [nM] C32
# Experimental: as §1, §2
# [8] = test system: RVH421 cells; experiment: Assay 2 cell proliferation measurement, RVH421; assay type: cell-based; settings: Homo sapiens, RVH-421, Melanoma, read-out: Anti-proliferation IC50 [nM] RVH421
# Experimental: as §1, §2
# [9] = test system: HeLa cells; experiment: Assay 2 cell proliferation measurement, HeLa; assay type: cell-based; settings: Homo sapiens, Cervical, read-out: Anti-proliferation IC50 [nM] HeLa
# Experimental: as §1, §2
# [10] = test system: HS578T cells; experiment: Assay 2 cell proliferation measurement, HS578T; assay type: cell-based; settings: Homo sapiens, Hs-578T, Breast, ductal carcinoma, read-out: Anti-proliferation IC50 [nM] HS578T
# Experimental: as §1, §2
# [11] = test system: NCIH196 cells; experiment: Assay 2 cell proliferation measurement, H196; assay type: cell-based; settings: Homo sapiens, NCI-H196, Lung small cell carcinoma, read-out: Anti-proliferation IC50 [nM] H196
# Experimental: as §1, §2
# [12] = test system: NCIH2172 cells; experiment: Assay 2 cell proliferation measurement, H2172; assay type: cell-based; settings: Homo sapiens, NCI-H2172, Lung non small cell carcinoma, read-out: Anti-proliferation IC50 [nM] H2172
# Experimental: as §1, §2
# [13] = test system: A2058 cells; experiment: Assay 2 cell proliferation measurement, A2058; assay type: cell-based; settings: Homo sapiens, Melanoma, read-out: Anti-proliferation IC50 [nM] A2058
# Experimental: as §1, §2
# [14] = test system: DKMG cells; experiment: Assay 2 cell proliferation measurement, DKMG; assay type: cell-based; settings: Homo sapiens, Glioma_astrocytoma, read-out: Anti-proliferation IC50 [nM] DKMG
# Experimental: as §1, §2
SMILES,Clblood [1],Fmax [1],IC50 [6],IC50 [9],IC50 [11],IC50 [12],IC50 [2],IC50 [3],IC50 [4],IC50 [5],IC50 [7],IC50 [8],IC50 [10],IC50 [13],IC50 [14]
"O=C1NN=C(c2ccc(-c3cnn(C(F)F)c3)c(C(F)(F)F)c2)CO1 [Example 146, 5-{4-[1-(Difluoromethyl)-1H-pyrazol-4-yl]-3-(trifluoromethyl)phenyl}-3,6-dihydro-2H-1,3,4-oxadiazin-2-one]",8.83 mL/min/kg,60%,3 nM,2 nM,32 nM,37 nM,12 nM,13 nM,8 nM,16 nM,52 nM,47 nM,20 nM,25 nM,13 nM
"C[C@@H]1OC(=O)NN=C1c1ccc(-n2ccc(C(F)(F)F)n2)c(C(F)(F)F)c1 [Example 265, (6S)-6-Methyl-5-{3-(trifluoromethyl)-4-[3-(trifluoromethyl)-1H-pyrazol-1-yl]phenyl}-3,6-dihydro-2H-1,3,4-oxadiazin-2-one]",8.5 mL/min/kg,61%,10 nM,5 nM,355 nM,101 nM,,,,,132 nM,262 nM,116 nM,96 nM,59 nM

# Second part, led by results:
Clblood [1],Fmax [1],IC50 [6],IC50 [9],IC50 [11],IC50 [12],SMILES,IC50 [2],IC50 [3],IC50 [4],IC50 [5],IC50 [7],IC50 [8],IC50 [10],IC50 [13],IC50 [14]
6.5 mL/min/kg,70%,,,,,"O=C1NN=C(c2ccc(-c3ccc(F)cc3)c(C(F)(F)F)c2)CO1 [Example 3, 5-[4′-Fluoro-2-(trifluoromethyl)biphenyl-4-yl]-3,6-dihydro-2H-1,3,4-oxadiazin-2-one]",21 nM,25 nM,9 nM,,,,,,
10.7 mL/min/kg,52%,,,,,"O=C1NN=C(c2ccc(-c3ccc(Cl)cc3)c(C(F)(F)F)c2)CO1 [Example 31, 5-[4′-Chloro-2-(trifluoromethyl)biphenyl-4-yl]-3,6-dihydro-2H-1,3,4-oxadiazin-2-one]",39 nM,47 nM,28 nM,51 nM,,,,,
16.3 mL/min/kg,26%,5 nM,2 nM,150 nM,38 nM,"C[C@@H]1OC(=O)NN=C1c1ccc(-c2ccc(F)cc2)c(C(F)(F)F)c1 [Example 135, (6S)-5-[4′-Fluoro-2-(trifluoromethyl)biphenyl-4-yl]-6-methyl-3,6-dihydro-2H-1,3,4-oxadiazin-2-one]",,,,24 nM,58 nM,140 nM,33 nM,38 nM,22 nM
